Results published in PubChem BioAssay AID1918996 (Molecular Pharmacology Branch, DTP, NCI, 2023).
“And” between values parts separate entries of the source, which are not always exact repeats. Identical values can stand only once.

System: 349418-098-R-PDC complex spheroid growth
Test: Anticancer human tumor 349418-098-R-PDC patient-derived lung adenocarcinoma cell line growth inhibition [AhR]
Settings: for viability, T/C: stronger effect = lower value
Description: Multicellular complex tumor spheroid response to aryl hydrocarbon receptor antagonists in combination with a variety of drugs and investigational agents in selected tumor cell lines
The current study was undertaken to assess response to aryl hydrocarbon receptor antagonists in combination with standard-of-care drugs and investigational agents in solid tumor complex spheroid models. Complex spheroids include a stromal component modeled by human endothelial cells (HUVEC) and fibroblasts modeled by human mesenchymal stem cells (MSCs). The concentration ranges selected for each drug and investigational agent were based upon clinically achievable concentrations if the clinical Cmax of the agent was known.
Compounds. The drugs and investigational agents: BAY 2416964 (NSC825713), GNF351 (NSC835774), CH-223191 (NSC835775), CPI-455 (NSC825282), aza-TdCyd (NSC777586), decitabine (NSC127716), belinostat (NSC758774), entinostat (NSC756642), pevonedistat (NSC761192), tazemetostat (NSC777109), talazoparib (NSC765396), olaparib (NSC753686), selinexor (NSC780203), nedisertib (M3814, NSC802822), bortezomib (NSC756655), venetoclax (NSC766270), doxorubicin (NSC123127), elimusertib (BAY189344, NSC800525), ceralasertib (AZD6738, NSC777638), TAK-243 (NSC785004), alisertib (NSC759677), etoposide (NSC141540), topotecan (NSC609699), eribulin (NSC707389), gemcitabine (NSC613327), carboplatin (NSC241240), cisplatin (NSC119875), and SN-38 (NSC673596) were obtained from the National Cancer Institute (NCI) Developmental Therapeutics Program Chemical Repository (32). The FDA-approved anticancer drug set is available from the Developmental Therapeutics Program at https://dtp.cancer.gov/organization/dscb/obtaining/available plates.htm. […] The stock solutions were prepared in dimethyl sulfoxide (DMSO, Sigma-Aldrich, St. Louis, MO, cat. D2650), except for the platinum compounds which were prepared in saline (Quality Biological, Gaithersburg, MD, cat. 114-055-101), at 800-fold the tested concentration and stored at -70 degrees C prior to their use. All drugs and investigational agents were tested over a range starting from a high concentration at or near the clinical Cmax and decreasing in half-log increments. If the clinical Cmax for an agent had not been determined, the highest concentration tested was 10 microM (Table 1).
Cell Culture. All cells were maintained in an incubator at 37 degrees C and 5% CO2 with 95% humidity. The PDC lines were cultured according to standard operating procedures established by the NCI PDMR (https://pdmr.cancer.gov). Briefly, all PDCs were thawed and cultured in Matrigel-coated flasks prepared with a working solution of 1X Ham's F-12 nutrient mix, without supplementation (Invitrogen, Waltham, MA, cat. 11765054), 100 U/mL penicillin-streptomycin (Invitrogen, cat. 15140122), and 2.5% Matrigel (Corning Inc., Corning, NY, cat. 354248) for the first three passages. All PDCs were cultured in complete DMEM/F-12 media containing advanced DMEM/F-12 (Invitrogen, cat. 12634028), 4.9% defined fetal bovine serum, heat inactivated (HyClone Laboratories Inc., Logan, UT, cat. SH30070.03HI), 389 ng/mL hydrocortisone (Sigma-Aldrich, cat. H4001), 9.7 ng/mL human EGF recombinant protein (Invitrogen, cat. PHG0313), 23.4 microg/mL adenine (Sigma-Aldrich, cat. A2786), 97.3 U/mL penicillin-streptomycin (Invitrogen, cat. 15140122), 1.9 mM L-glutamine (Invitrogen, cat. 25030081), and 9.7 microM Y-27632 dihydrochloride (Tocris Bioscience, Bristol, United Kingdom, cat. 1254). The PDCs were cultured in complete DMEM/F12 media without 10 microM Y-27632 dihydrochloride for at least two passages prior to the screen. The established cell lines NCI-H1341 and […] were cultured in DMEM/F-12, HEPES (Invitrogen, cat. 11330032), 5% defined fetal bovine serum (HyClone Laboratories Inc., cat. SH30070.03), ITS premix universal culture supplement [insulin (5 microg/mL), transferrin (5 microg/mL), and selenious acid (5 ng/mL)] […]

[1] = curve of first compound, second compound 0.1 µM
[2] = curve of first compound, second compound 0.316 µM
[3] = curve of first compound, second compound 1 µM
[4] = curve of first compound, second compound 3.16 µM
[5] = curve of first compound, second compound 10 µM
[6] = second compound 0.1 µM, first compound 0.0316 µM
[7] = second compound 0.1 µM, first compound 0.1 µM
[8] = second compound 0.1 µM, first compound 0.316 µM
[9] = second compound 0.1 µM, first compound 1 µM
[10] = second compound 0.1 µM, first compound 3.16 µM
[11] = second compound 0.1 µM, first compound 10 µM
[12] = second compound 0.316 µM, first compound 0.0316 µM
[13] = second compound 0.316 µM, first compound 0.1 µM
[14] = second compound 0.316 µM, first compound 0.316 µM
[15] = second compound 0.316 µM, first compound 1 µM
[16] = second compound 0.316 µM, first compound 3.16 µM
[17] = second compound 0.316 µM, first compound 10 µM
[18] = second compound 1 µM, first compound 0.0316 µM
[19] = second compound 1 µM, first compound 0.1 µM
[20] = second compound 1 µM, first compound 0.316 µM
[21] = second compound 1 µM, first compound 1 µM
[22] = second compound 1 µM, first compound 3.16 µM
[23] = second compound 1 µM, first compound 10 µM
[24] = second compound 3.16 µM, first compound 0.0316 µM
[25] = second compound 3.16 µM, first compound 0.1 µM
[26] = second compound 3.16 µM, first compound 0.316 µM
[27] = second compound 3.16 µM, first compound 1 µM
[28] = second compound 3.16 µM, first compound 3.16 µM
[29] = second compound 3.16 µM, first compound 10 µM
[30] = second compound 10 µM, first compound 0.0316 µM
[31] = second compound 10 µM, first compound 0.1 µM
[32] = second compound 10 µM, first compound 0.316 µM
[33] = second compound 10 µM, first compound 1 µM
[34] = second compound 10 µM, first compound 3.16 µM
[35] = second compound 10 µM, first compound 10 µM
[36] = second compound 0.1 µM, first compound 0.00316 µM
[37] = second compound 0.1 µM, first compound 0.01 µM
[38] = second compound 0.316 µM, first compound 0.00316 µM
[39] = second compound 0.316 µM, first compound 0.01 µM
[40] = second compound 1 µM, first compound 0.00316 µM
[41] = second compound 1 µM, first compound 0.01 µM
[42] = second compound 3.16 µM, first compound 0.00316 µM
[43] = second compound 3.16 µM, first compound 0.01 µM
[44] = second compound 10 µM, first compound 0.00316 µM
[45] = second compound 10 µM, first compound 0.01 µM
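Note: spheroids exposed to agents for seven days before luminescence viability read.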
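Throughout, for viability, T/C: spheroids also contain HUVEC endothelial cells and human MSC stroma.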

Row | IC50 [1] [nM] | IC50 [2] [nM] | IC50 [3] [nM] | IC50 [4] [nM] | IC50 [5] [nM] | Compound | viability, T/C [6] [%] | viability, T/C [7] [%] | viability, T/C [8] [%] | viability, T/C [9] [%] | viability, T/C [12] [%] | viability, T/C [13] [%] | viability, T/C [14] [%] | viability, T/C [15] [%] | viability, T/C [18] [%] | viability, T/C [19] [%] | viability, T/C [20] [%] | viability, T/C [21] [%] | viability, T/C [24] [%] | viability, T/C [25] [%] | viability, T/C [26] [%] | also measured
1 | > 10000 | > 10000 | > 10000 | > 10000 | > 10000 | CC(C)c1c(-c2ccccc2)nc2c(C#N)c[nH]n2c1=O + Cc1ccccc1N=Nc1ccc(NC(=O)c2ccnn2C)c(C)c1 | 79.3 | 85.6 | 95.2 | 98 | 88.2 | 87.3 | 86.2 | 88.7 | 91.6 | 79.8 | 88.8 | 91.4 | 81.7 | 89.9 | 85.2 | viability, T/C [10]: 78%; viability, T/C [11]: 76.5%; viability, T/C [16]: 80%; viability, T/C [17]: 84.7%; viability, T/C [22]: 79.9%; viability, T/C [23]: 58.7%; viability, T/C [27]: 85.7%; viability, T/C [28]: 53.9%; viability, T/C [29]: 62.4%; viability, T/C [30]: 47.5%; viability, T/C [31]: 58.1%; viability, T/C [32]: 59.1%; viability, T/C [33]: 50.4%; viability, T/C [34]: 44.7%; viability, T/C [35]: 57.1%
2 |  |  |  |  |  | CC(C)CC(NC(=O)C(Cc1ccccc1)NC(=O)c1cnccn1)B(O)O (centres undefined) |  |  |  |  |  |  |  |  |  |  |  |  |  |  |  | viability, T/C (compound 0.000949 µM): 52.6% and 44.3% and 19.1%; viability, T/C (compound 0.003 µM): 10.6% and 12.6% and 7.27%; viability, T/C (compound 0.00949 µM): 1.45% and 2.68% and 2.76%; viability, T/C (compound 0.03 µM): 0.95% and 1.46% and 2.12%; viability, T/C (compound 0.0949 µM): 0.72% and 2.31% and 2.54%; viability, T/C (compound 0.3 µM): 0.73% and 2.25% and 1.49%; IC50 (curve of compound): 1.02 nM and < 0.949 nM
3 |  |  |  |  |  | Nc1ccccc1NC(=O)c1ccc(CNC(=O)OCc2cccnc2)cc1 |  |  |  |  |  |  |  |  |  |  |  |  |  |  |  | viability, T/C (compound 0.0316 µM): 86.3% and 118% and 87.5%; viability, T/C (compound 0.1 µM): 77.6% and 98.4% and 82.2%; viability, T/C (compound 0.316 µM): 65.7% and 89.3% and 84.6%; viability, T/C (compound 1 µM): 48.9% and 69.2% and 44.6%; viability, T/C (compound 3.16 µM): 23.7% and 17.8% and 23.1%; viability, T/C (compound 10 µM): 5.19% and 7.03% and 7.04%; IC50 (curve of compound): 850 nM and 1440 nM and 937 nM
4 | 71.3 | 102 | 72.5 | 70.7 | 39.1 | CC1COCCN1c1cc(-c2ccnn2C)c2ccnc(-c3ccn[nH]3)c2n1 (centres undefined) + Cc1ccccc1N=Nc1ccc(NC(=O)c2ccnn2C)c(C)c1 | 61 | 47.9 | 13.9 | 10.5 | 81 | 50.3 | 15.6 | 10.4 | 78.6 | 39.4 | 15.8 | 11.3 | 76.2 | 40.5 | 18.6 | viability, T/C [36]: 84.5%; viability, T/C [37]: 96.5%; viability, T/C [38]: 64.4%; viability, T/C [39]: 96.8%; viability, T/C [40]: 107%; viability, T/C [41]: 111%; viability, T/C [42]: 61.6%; viability, T/C [43]: 78.2%; viability, T/C [27]: 11.9%; viability, T/C [44]: 60.4%; viability, T/C [45]: 61.9%; viability, T/C [30]: 55.4%; viability, T/C [31]: 26.9%; viability, T/C [32]: 17.3%; viability, T/C [33]: 12.9%
5 | 612 | 759 | 517 | < 31.6 | < 31.6 | Nc1ccccc1NC(=O)c1ccc(CNC(=O)OCc2cccnc2)cc1 + Cc1cncc(-c2nc(NCCc3c[nH]c4ccccc34)c3ncn(C(C)C)c3n2)c1 | 79.9 | 69.6 | 58.4 | 46.7 | 69.7 | 73.5 | 57.3 | 47.7 | 72.6 | 67.5 | 54.9 | 43.2 | 12.8 | 15.7 | 9.2 | viability, T/C [10]: 19.9%; viability, T/C [11]: 4.89%; viability, T/C [16]: 25.6%; viability, T/C [17]: 4.93%; viability, T/C [22]: 20.1%; viability, T/C [23]: 4.95%; viability, T/C [27]: 12.1%; viability, T/C [28]: 7.68%; viability, T/C [29]: 2.59%; viability, T/C [30]: 1%; viability, T/C [31]: 1.06%; viability, T/C [32]: 0.67%; viability, T/C [33]: 0.76%; viability, T/C [34]: 0.51%; viability, T/C [35]: 0.34%
6 | 153 | 150 | 101 | < 3.16 | < 3.16 | CC1COCCN1c1cc(-c2ccnn2C)c2ccnc(-c3ccn[nH]3)c2n1 (centres undefined) + Cc1cncc(-c2nc(NCCc3c[nH]c4ccccc34)c3ncn(C(C)C)c3n2)c1 | 99.7 | 71.6 | 13.1 | 7.48 | 91.4 | 68.5 | 15.7 | 7.2 | 81.5 | 50.1 | 13.2 | 8.54 | 12.4 | 7.18 | 6.8 | viability, T/C [36]: 105%; viability, T/C [37]: 105%; viability, T/C [38]: 90.9%; viability, T/C [39]: 92.4%; viability, T/C [40]: 74.1%; viability, T/C [41]: 81.4%; viability, T/C [42]: 14.2%; viability, T/C [43]: 15.1%; viability, T/C [27]: 5.72%; viability, T/C [44]: 0.74%; viability, T/C [45]: 0.66%; viability, T/C [30]: 0.7%; viability, T/C [31]: 0.73%; viability, T/C [32]: 0.69%; viability, T/C [33]: 1.49%
